Measured values: US11690828B2, “Treatment of CNS diseases with sGC stimulators” (Cyclerion Therapeutics, Inc., priority 2016, dated 2023)

Assays:
cGMP = test: Dose-response compound-induced cGMP in mouse brain (cerebrum); format: in vivo; conditions: 30 minutes after dosing
Description: Protocol. Experimental Day 1: Fast mice overnight with ad libitum access to water. Experimental Day 2: Mice (n=10 per experimental condition) were dosed P.O. with vehicle (1% hydroxypropyl methyl cellulose, 0.2% Tween80, 0.5% methyl cellulose), 3 or 10 mg/Kg of Compound I-2 prepared in vehicle. Thirty minutes after dosing, under isoflurane anesthesia, each mouse was decapitated and its brain was removed. The cerebrum was separated from each brain and placed in separate 15 ml falcon tubes and flash froze by immersion into liquid nitrogen. The tissue samples were stored at −80 C. cGMP levels in brain were determined by LC/MS. Brain samples were homogenized in an aqueous buffer consisting of 80:20 (V/V %) water:acetic acid using an ultrasonicator probe. Brain homogenates containing sGC compounds and or cGMP were extracted from brain tissue by protein precipitation with an organic solvent containing internal standards (IS) followed by filtration and phospholipid removal using a Phenomenex® Phree™ phospholipid removal plate. Samples were analyzed using liquid chromatography (LC) with tandem mass spectrometric detection (MS/MS) using electrospray ionization. The standard curve concentrations used for quantitation of cGMP and or sGC compound(s) ranged from 0.2 to 400 ng/mL. Protein quantification of brain samples was determined using BCA protein assay kit

BDNF = test: Effect on BDNF protein in the rat dorsal striatum, quinolinic acid lesion model; format: in vivo; conditions: 10 mg/kg once a day for 7 days
Description: Protocol. Experimental day 1: Rats were deeply anesthetized with isoflurane and each rat received a unilateral infusion of 0.25 μl of 50 mM quinolinic acid (QA) in the dorsal striatum (12.5 nmoles of QA on the left or right hemisphere). The dorsal striatum contralateral to the QA infusion on each rat received a control infusion of 0.25 μl PBS (control side). Some animals were dosed S.C. with vehicle (n=5) or 10 mg/Kg Compound I-2 (n=6) about 30 minutes after QA infusion. Experimental days 2-8: Rats were dosed every 24 h P.O. with Vehicle or 10 mg/Kg Compound I-2. About 24 h after the last dosing of vehicle or Compound I-2, rats were anesthetized, perfused with PBS followed by perfusion with 4% Paraformaldehyde in PBS; brain tissue was collected and placed in a falcon tube covered with 4% Paraformaldehyde (PAF) in PBS for about 14 h at 4° C. and then replaced by PBS with 30% sucrose solution for about 48 h. Brain tissue was cut in 40 μm coronal slices and stored in PBS at 4° C. […] Images from the dorsomedial area around the QA lesion or equivalent area on the control hemisphere were taken using confocal fluorescence microscopy. Images were analyzed using imageJ software to determine the average BDNF intensity in NeuN positive cells.

Fc1ccccc1Cn1nc(-c2nc(C(F)(F)F)n[nH]2)c2cccnc21 [Compound I-2]
cGMP in mouse brain as compared to vehicle dosed animals (cGMP; acute 3 mg/Kg P.O.): increases
cGMP in mouse brain as compared to vehicle dosed animals (cGMP; acute 10 mg/Kg P.O.): increases
BDNF averaged intensity in NeuN positive cells around the QA lesion, as compared to vehicle treatment (BDNF): increase
BDNF averaged intensity in NeuN positive cells in the dorsomedial striatum without a lesion (control side), as compared to vehicle treatment (BDNF): increase
